Source: article PMC7761779 (Polymers, 2020)
Like-named read-outs stand apart in the source and are kept apart here.

What was measured:
[1] = set-up: method as in PMID 30529662; conditions: label = neat solvent of the NIA solution; finite dose; porcine skin; cited from earlier work
[2] = set-up: method as in PMID 30529662; conditions: label = neat solvent of the NIA solution; porcine skin; cited from earlier work
[3] = Dynamic Vapor Sorption (DVS) study of NIA solutions; type: physicochemical; conditions: label = vehicle of a 5% (w/v) NIA solution; 5 μL; 32 ± 1 °C, 50 ± 2% RH; n = 3
Description: Nitrogen was used as the carrier gas (200 mL/min). To monitor mass differences, 15 mm quartz glass pans connected to a microbalance accurate to 0.00001 mg were employed. Then, 5 μL solutions of 5% NIA (w/v) were added to the pans, and data were recorded using a Universal Analysis 2000 (TA Instrument, New Castle, DE, USA). Temperature and relative humidity (RH) were maintained over the course of the studies at 32 ± 1 °C and 50 ± 2% RH, respectively.

[4] = set-up: method as in PMID 30529662; conditions: label = solvent; cited from earlier work
[5] = set-up: method as in PMID 3958901; conditions: PEG 400/water mixtures; cadaver skin; infinite dose; cited from earlier work
[6] = set-up: method as in Suwanpidokkul et al.; conditions: porcine skin, infinite dose, ref Suwanpidokkul et al., cited from earlier work

SMILES | Cumulative permeation of NIA at 24 h [1] [μg/cm^2] | Skin retention of NIA [2] [%] | Percentage of applied weight recovered at 24 h (DVS) [3] [%] | Flux trend with increasing PEG 400 concentration in the formulation [5] | other results
CO[C@H]1CO[C@H]2[C@@H]1OC[C@H]2OC [DMI, dimethyl isosorbide] | 103.6 | 16.7 ± 6.3 | 76.3 ± 0.1 |  | 
CC(O)CO (centres unmarked) [PG, propylene glycol] | 46.0 |  | 44.6 ± 0.02 |  | 
CCOCCOCCO [TC, Transcutol® P] | 95.1 | 16.4 ± 5.8 | 17.6 ± 0.5 |  | Solubility of NIA [4]: 8.0 ± 0.6%
N=C(N)N/N=C/c1c(Cl)cccc1Cl [guanabenz] |  |  |  | drop linearly | 
O=C(O)CCc1nc(-c2ccccc2)c(-c2ccccc2)o1 [oxaprozin] |  |  |  | drop linearly | 
Cc1cn([C@H]2C[C@H](N=[N+]=[N-])[C@@H](CO)O2)c(=O)[nH]c1=O [zidovudine] |  |  |  |  | Flux ([6]; PEG 400/water vehicle): 15.52 ± 0.60 μg/cm^2/h; Flux ([6]; ethanol/water vehicle): 9.96 ± 0.63 μg/cm^2/h; Flux ([6]; isopropanol/water vehicle): 10.35 ± 0.67 μg/cm^2/h
